Measurements: patent publication US20050165081A1, “Use of anastrozole for the treatment of post-menopausal women having early breast cancer” (priority 2001, published 2005)
“Also recorded” adds a separate entry of the source. Counter-ions that a name gives are not always drawn. Like-named read-outs stand apart in the source and are kept apart here.

Columns and labels:
[1] = format: in vivo
Protocol: (§1) The trial was designed to compare tamoxifen (20 mg once daily [od]) and anastrozole (1 mg od) and to compare tamoxifen (20 mg od) and the combination of anastrozole (1 mg od) plus tamoxifen (20 mg od) as adjuvant treatment in terms of: • a) time to recurrence of breast cancer (defined as the earliest of local or distant recurrence, new primary breast cancer, or death); and • b) safety and side effects. Secondary objectives of this trial were to compare (i) tamoxifen and anastrozole and (ii) to compare tamoxifen and the combination of anastrozole plus tamoxifen as adjuvant treatment in terms of: • a) time to distant recurrence; • b) survival; and • c) incidence of new breast primaries.
(§2) Specifically, the trial was designed as a randomised, double-blind, multicentre trial to compare the efficacy and safety of tamoxifen alone, anastrozole alone and anastrozole in combination with tamoxifen as adjuvant treatment for breast cancer in post-menopausal women.
At the major analysis, the incidence rates of the following pre-defined adverse events was formally compared between treatment groups defined by treatment received: hot flushes, nausea and vomiting, asthenia, mood disturbances, musculo-skeletal disorders, vaginal bleeding, vaginal discharge, endometrial cancer, fractures, cataract, venous thromboembolic events, and ischaemic cardiovascular disease. The primary analysis includes all patients who received trial treatment, analysed according to treatment received. A secondary subgroup analysis was also be undertaken, analysed according to trial treatment received, in patients with oestrogen receptor (ER) positive and/or progesterone receptor (PR) positive tumours, patients with ER negative and PR negative tumours, and all other patients remaining safety data was summarised and presented by treatment received.

breast cancer = details: adjuvant tamoxifen for two years or more, no concomitant chemotherapy; cited from earlier work
early breast cancer = experiment: Randomised, double-blind, multicentre adjuvant trial: time to disease recurrence / disease-free survival and new breast primaries; format: in vivo, post-menopausal women; details: for First event / First events: Contralateral (DCIS) / First events: Contralateral (invasive) / First events: Death - breast cancer / First events: Death - other reason / First events: Distant / First events: Locoregional: number of first events, ITT population
Protocol: as §1, §2
Patients were assessed at entry, 3 months, 6 months and thereafter at 6-month intervals. Patients were recruited from 381 centres and in 21 countries. The patients were recruited between July 1996 and March 2000.
The double blind trial used both active and placebo anastrozole and tamoxifen tables, in order to maintain blindness to trial therapy. Anastrozole 1 mg and matching anastrozole placebo were supplied as white, film-coated tablets. Tamoxifen 20 mg active tablets and matching tamoxifen placebo were supplied as white, round, biconvex tablets. Patients were randomised to receive one of three oral therapy regimens. The daily dose is one tablet of anastrozole (1 mg active or placebo) plus one tablet of tamoxifen (20 mg active or placebo). Patients were instructed to take their daily dose at approximately the same time each day. At entry to the trial patients received either a 13-week supply or a 26-week supply of trial material. Patients who received a 13-week supply received a further 13-week supply at the first follow-up visit (3-months). From the 6-month visit onwards, patients received a 26-week supply. In order to assess compliance, patients were asked to return all unused tablets at each visit.
Therapy was started as soon as possible after randomisation, but not more than 8 weeks after completion of surgery and chemotherapy. […] Primary chemotherapy must have started within 8 weeks of completing primary surgery. Patients who stop primary chemotherapy before completion of the planned number of cycles may also be randomised. […] These drugs include the following:— • cytotoxic chemotherapy; • oral adminstration of ketoconazole (antifungal) or related compounds (i.e. topical applications are acceptable); • other hormonal treatments for breast cancer.
Patients were reviewed for recurrence of breast cancer at all follow-up visits, using the following criteria, which are based on British Breast Group recommendations:—
New breast primaries (either contralateral or ipsilateral) were regarded as disease recurrence events in the statistical analyses of time to recurrence.
The primary statistical endpoint of the trial was time to disease recurrence (locoregional or distant recurrence, new primary breast cancer or death from any cause) and safety/tolerability. The secondary statistical endpoints were time to distant recurrence, time to death, the incidence of new breast primaries and the incidence of pre-defined adverse events. In summary, two treatment comparisons were made: (1) anastrozole alone compared to tamoxifen alone and (2) tamoxifen alone compared to anastrozole and tamoxifen in combination.

advanced breast cancer = details: advanced disease, cited from earlier work

Compound: CC/C(=C(\c1ccccc1)c1ccc(OCCN(C)C)cc1)c1ccccc1 [tamoxifen, tamoxifen citrate]
- tolerability versus anastrozole ([1]; musculoskeletal disorders and fractures): better tolerated
- annual reduction in mortality (breast cancer): 24%
- annual reduction in recurrence (breast cancer): 39%
- First event (early breast cancer): 379
- First events: Contralateral (DCIS) (early breast cancer): 3
- First events: Contralateral (invasive) (early breast cancer): 30
- First events: Death - breast cancer (early breast cancer): 1
- First events: Death - other reason (early breast cancer): 81
- First events: Distant (early breast cancer): 181
- First events: Locoregional (early breast cancer): 83
- patients who will respond (advanced breast cancer; ER and PR negative patients): < 10%
- patients who will respond (advanced breast cancer; ER and PR positive patients): approximately 70%

Compound: CC(C)(C#N)c1cc(Cn2cncn2)cc(C(C)(C)C#N)c1 [anastrozole]
- overall tolerability in the adjuvant programme ([1]; FIG. 4, pre-defined adverse events): well tolerated
- tolerability versus tamoxifen ([1]; endometrial cancer, vaginal bleeding, vaginal discharge, ischemic cerebrovascular events, venous thromboembolic events, hot flushes, weight gain): significantly better tolerated
- rate of disease recurrence, comparison in words (early breast cancer; FIG. 2, receptor positive population): superior to tamoxifen
- HR, disease-free survival (early breast cancer; ITT (overall) population, versus tamoxifen, HR <1.00 favours anastrozole or the combination): 0.83
- reduction in recurrence rate (early breast cancer; hormone receptor positive (ER and/or PR positive) patients, versus tamoxifen): 22%
- reduction in the rate of recurrence events (early breast cancer; main analysis, all patients, versus tamoxifen, locoregional, distant, contralateral events and deaths): 17%
- First event (early breast cancer): 317
- First events: Contralateral (DCIS) (early breast cancer): 5
- First events: Contralateral (invasive) (early breast cancer): 9
- First events: Death - breast cancer (early breast cancer): 2
- First events: Death - other reason (early breast cancer): 78
- First events: Distant (early breast cancer): 156
- First events: Locoregional (early breast cancer): 67
- incidence of new primary (contralateral) breast cancer, comparison in words (early breast cancer; overall population): significantly more effective than tamoxifen
- disease-free survival / rate of disease recurrence, comparison in words (early breast cancer; overall population, adjuvant treatment of early breast cancer): significantly more effective than tamoxifen; also recorded: superior to tamoxifen
- incidence of new primary (contralateral) breast cancer, comparison in words (early breast cancer; overall population, listed as anastrazole): superiority
- HR, incidence of new (contralateral) breast primaries (early breast cancer; overall population, versus tamoxifen): 0.42
- OR, incidence of contralateral breast cancer (early breast cancer; overall population, versus tamoxifen, 1.00 would show equivalence): 0.42
- HR, disease-free survival (early breast cancer; receptor positive population, versus tamoxifen): 0.78
